# Assay results published in US20230212122A1, “MITOCHONDRIAL TARGETING COMPOUNDS FOR THE TREATMENT OF ASSOCIATED DISEASES” (The Regents of the University of Michigan, priority 2020, published 2023).
# Test system: UM16 cell line
# Experiment: GSEA of Bru-seq data (hallmark, KEGG, GO pathways, transcription factors)
# Type: cell-based
# Conditions: 4 hours
# Excerpt: Consistent with this observation, there are also massive metabolite pathways influenced including starch and sucrose metabolism, glycolysis and gluconeogenesis, purine metabolism, pyrimidine metabolism, N-glycan biosynthesis, etc.
smiles,measurement,setting,value
"CCOC(=O)[C@@H]1CCCN(S(=O)(=O)c2ccc(S(=O)(=O)N(CC)CC)cc2)C1 [DX2-201, ethyl (R)-1-((4-(N,N-diethylsulfamoyl)phenyl)sulfonyl)piperidine-3-carboxylate]",ES KEGG_AMINOACYL_TRNA_BIOSYNTHESIS,5 pM,−0.4260
same,ES KEGG_DNA_REPLICATION,5 pM,−0.5795
same,ES KEGG_NUCLEOTIDE_EXCISION_REPAIR,5 pM,−0.4603
same,ES KEGG_N_GLYCAN_BIOSYNTHESIS,5 pM,−0.5360
same,ES KEGG_OXIDATIVE_PHOSPHORYLATION,5 pM,−0.4451
same,ES KEGG_PARKINSONS_DISEASE,5 pM,−0.4446
same,ES KEGG_PROTEASOME,5 pM,−0.5628
same,ES KEGG_PURINE_METABOLISM,5 pM,−0.4914
same,ES KEGG_PYRIMIDINE_METABOLISM,5 pM,−0.4987
same,ES KEGG_RNA_POLYMERASE,5 pM,−0.6348
same,ES KEGG_SPLICEOSOME,5 pM,−0.4510
same,NES KEGG_ALZHEIMERS_DISEASE,5 pM,−1.6021
same,NES KEGG_AMINOACYL_TRNA_BIOSYNTHESIS,5 pM,−1.4417
same,NES KEGG_DNA_REPLICATION,5 pM,−1.9358
same,NES KEGG_HUNTINGTONS_DISEASE,5 pM,−1.7040
same,NES KEGG_MISMATCH_REPAIR,5 pM,−1.8751
same,NES KEGG_NUCLEOTIDE_EXCISION_REPAIR,5 pM,−1.5835
same,NES KEGG_N_GLYCAN_BIOSYNTHESIS,5 pM,−1.8440
same,NES KEGG_OXIDATIVE_PHOSPHORYLATION,5 pM,−1.7650
same,NES KEGG_PARKINSONS_DISEASE,5 pM,−1.7382
same,NES KEGG_PROTEASOME,5 pM,−1.9164
same,NES KEGG_PURINE_METABOLISM,5 pM,−2.0380
same,NES KEGG_PYRIMIDINE_METABOLISM,5 pM,−1.9279
same,NES KEGG_SPLICEOSOME,5 pM,−1.8728
same,ES GO_ADP_METABOLIC_PROCESS,5 μM,0.6343
same,ES GO_ATP_GENERATION_FROM_ADP,5 μM,0.6848
same,ES GO_GLUCOSE_CATABOLIC_PROCESS,5 μM,0.7209
same,ES GO_HEXOSE_CATABOLIC_PROCESS,5 μM,0.6548
same,ES GO_MONOSACCHARIDE_CATABOLIC_PROCESS,5 μM,0.5791
same,ES GO_NADH_METABOLIC_PROCESS,5 μM,0.6704
same,ES GO_NEGATIVE_REGULATION_OF_FAT_CELL_DIFFERENTIATION,5 μM,0.6098
same,ES GO_NUCLEOTIDE_PHOSPHORYLATION,5 μM,0.5920
same,ES GO_PYRUVATE_METABOLIC_PROCESS,5 μM,0.6035
same,ES GO_RESPONSE_TO_OXYGEN_LEVELS,5 μM,0.4230
same,ES GO_RIBONUCLEOSIDE_DIPHOSPHATE_METABOLIC_PROCESS,5 μM,0.5746
same,ES HALLMARK_ALLOGRAFT_REJECTION,5 μM,0.2962
same,ES HALLMARK_ANDROGEN_RESPONSE,5 μM,0.3155
same,ES HALLMARK_ANGIOGENESIS,5 μM,−0.5078
same,ES HALLMARK_APOPTOSIS,5 μM,0.3812
same,ES HALLMARK_BILE_ACID_METABOLISM,5 μM,0.3249
same,ES HALLMARK_CHOLESTEROL_HOMEOSTASIS,5 μM,0.4969
same,ES HALLMARK_DNA_REPAIR,5 μM,−0.4085
same,ES HALLMARK_E2F_TARGETS,5 μM,−0.3804
same,ES HALLMARK_ESTROGEN_RESPONSE_LATE,5 μM,0.3437
same,ES HALLMARK_FATTY_ACID_METABOLISM,5 μM,0.2942
same,ES HALLMARK_GLYCOLYSIS,5 μM,0.4109
same,ES HALLMARK_HEDGEHOG_SIGNALING,5 μM,0.4848
same,ES HALLMARK_HEME_METABOLISM,5 μM,0.3641
same,ES HALLMARK_HYPOXIA,5 μM,0.6294
same,ES HALLMARK_IL2_STAT5_SIGNALING,5 μM,0.3402
same,ES HALLMARK_INFLAMMATORY_RESPONSE,5 μM,0.2995
same,ES HALLMARK_KRAS_SIGNALING_DN,5 μM,0.3965
same,ES HALLMARK_MITOTIC_SPINDLE,5 μM,0.3104
same,ES HALLMARK_MTORC1_SIGNALING,5 μM,0.2680
same,ES HALLMARK_MYC_TARGETS_V1,5 μM,−0.5426
same,ES HALLMARK_MYC_TARGETS_V2,5 μM,−0.6265
same,ES HALLMARK_MYOGENESIS,5 μM,0.3657
same,ES HALLMARK_OXIDATIVE_PHOSPHORYLATION,5 μM,−0.3812
same,ES HALLMARK_P53_PATHWAY,5 μM,0.3403
same,ES HALLMARK_TNFA_SIGNALING_VIA_NFKB,5 μM,0.3199
same,ES HALLMARK_UNFOLDED_PROTEIN_RESPONSE,5 μM,−0.3254
same,ES HALLMARK_UV_RESPONSE_DN,5 μM,0.3784
same,ES HALLMARK_XENOBIOTIC_METABOLISM,5 μM,0.2890
same,ES KEGG_DORSO_VENTRAL_AXIS_FORMATION,5 μM,0.6614
same,ES KEGG_GLYCOLYSIS_GLUCONEOGENESIS,5 μM,0.5362
same,ES KEGG_LEISHMANIA_INFECTION,5 μM,0.5017
same,ES KEGG_REGULATION_OF_AUTOPHAGY,5 μM,0.5972
same,ES KEGG_RENAL_CELL_CARCINOMA,5 μM,0.4210
same,ES KEGG_STARCH_AND_SUCROSE_METABOLISM,5 μM,0.7356
same,ES KEGG_TYPE_II_DIABETES_MELLITUS,5 μM,0.5316
same,NES GO_ADP_METABOLIC_PROCESS,5 μM,2.1062
same,NES GO_ATP_GENERATION_FROM_ADP,5 μM,2.0929
same,NES GO_GLUCOSE_CATABOLIC_PROCESS,5 μM,2.1191
same,NES GO_HEXOSE_CATABOLIC_PROCESS,5 μM,2.1301
same,NES GO_MONOSACCHARIDE_CATABOLIC_PROCESS,5 μM,1.9771
same,NES GO_NADH_METABOLIC_PROCESS,5 μM,2.0814
same,NES GO_NEGATIVE_REGULATION_OF_FAT_CELL_DIFFERENTIATION,5 μM,1.9052
same,NES GO_NUCLEOTIDE_PHOSPHORYLATION,5 μM,2.0727
same,NES GO_PYRUVATE_METABOLIC_PROCESS,5 μM,2.1281
same,NES GO_RESPONSE_TO_OXYGEN_LEVELS,5 μM,1.9612
same,NES GO_RIBONUCLEOSIDE_DIPHOSPHATE_METABOLIC_PROCESS,5 μM,2.0919
same,NES HALLMARK_ALLOGRAFT_REJECTION,5 μM,1.2241
same,NES HALLMARK_ANDROGEN_RESPONSE,5 μM,1.3002
same,NES HALLMARK_ANGIOGENESIS,5 μM,−1.4124
same,NES HALLMARK_APOPTOSIS,5 μM,1.6931
same,NES HALLMARK_BILE_ACID_METABOLISM,5 μM,1.2479
same,NES HALLMARK_CHOLESTEROL_HOMEOSTASIS,5 μM,1.9354
same,NES HALLMARK_DNA_REPAIR,5 μM,−1.7322
same,NES HALLMARK_E2F_TARGETS,5 μM,−1.7010
same,NES HALLMARK_ESTROGEN_RESPONSE_LATE,5 μM,1.5630
same,NES HALLMARK_FATTY_ACID_METABOLISM,5 μM,1.2729
same,NES HALLMARK_GLYCOLYSIS,5 μM,1.8782
same,NES HALLMARK_HEDGEHOG_SIGNALING,5 μM,1.3854
same,NES HALLMARK_HEME_METABOLISM,5 μM,1.6288
same,NES HALLMARK_HYPOXIA,5 μM,2.8139
same,NES HALLMARK_IL2_STAT5_SIGNALING,5 μM,1.5174
same,NES HALLMARK_INFLAMMATORY_RESPONSE,5 μM,1.2667
same,NES HALLMARK_KRAS_SIGNALING_DN,5 μM,1.4318
same,NES HALLMARK_MITOTIC_SPINDLE,5 μM,1.4709
same,NES HALLMARK_MTORC1_SIGNALING,5 μM,1.2451
same,NES HALLMARK_MYC_TARGETS_V1,5 μM,−2.4192
same,NES HALLMARK_MYC_TARGETS_V2,5 μM,−2.2565
same,NES HALLMARK_MYOGENESIS,5 μM,1.5149
same,NES HALLMARK_OXIDATIVE_PHOSPHORYLATION,5 μM,−1.6882
same,NES HALLMARK_P53_PATHWAY,5 μM,1.5682
same,NES HALLMARK_TNFA_SIGNALING_VIA_NFKB,5 μM,1.4745
same,NES HALLMARK_UNFOLDED_PROTEIN_RESPONSE,5 μM,−1.3390
same,NES HALLMARK_UV_RESPONSE_DN,5 μM,1.6434
same,NES HALLMARK_XENOBIOTIC_METABOLISM,5 μM,1.2573
same,NES KEGG_DORSO_VENTRAL_AXIS_FORMATION,5 μM,1.9145
same,NES KEGG_GLYCOLYSIS_GLUCONEOGENESIS,5 μM,1.8482
same,NES KEGG_LEISHMANIA_INFECTION,5 μM,1.6760
same,NES KEGG_REGULATION_OF_AUTOPHAGY,5 μM,1.7250
same,NES KEGG_RENAL_CELL_CARCINOMA,5 μM,1.6054
same,NES KEGG_STARCH_AND_SUCROSE_METABOLISM,5 μM,2.1177
same,NES KEGG_TYPE_II_DIABETES_MELLITUS,5 μM,1.6335
